What was measured:
[1] = tested on: patient's brain tumor area; experiment: Fluorescence visualization of brain tumor after drinking 5-aminolevulinic acid hydrochloride; format: in vivo, human; conditions: 19 mg/kg oral, 3 hours before induction of anesthesia, operation 6 hours after drinking; FIG. 1
[2] = Antioxidative activity (DPPH radical scavenging, modified Blois method); conditions: 2 mL sample + 2 mL 0.2 mM DPPH, 30 minutes, absorbance at 517 nm
Protocol: Radical scavenging activity was used using the cosmetic composition for acne skin improvement according to the example as a sample.
The antioxidative activity (electron donation ability, EDA %) of a sample was measured by modifying the Blois method. 2 mL of the sample was mixed with 2 mL of a 0.2 mM DPPH(1,1-diphenyl-2-picryl hydrazyl) solution, and then allowed to stand for 30 minutes, followed by measuring an absorbance at 517 nm.
The radical scavenging activity was expressed as the rate of decrease in absorbance between the sample-added group and the non-added group. The radical scavenging activity was calculated according to the following equation, and results are summarized in [Table 2] below. As a sample for the control, BHT (synthetic antioxidant) was used.
Radical scavenging activity (%)=(1−Absorbance of sample-added group/Absorbance of non-added group)×100

| Structure (SMILES) | Fluorescence of patient's brain tumor area at surgery [1] | Radical scavenging activity [2] |
| --- | --- | --- |
| Cl.NCC(=O)CCC(=O)O [5-aminolevulinic acid hydrochloride] | emitting a fluorescent color | – |
| Cc1cc(C(C)(C)C)c(O)c(C(C)(C)C)c1 [Control, BHT] | – | 55.3 ± 0.45% |

From patent US20230390396A1, “COMPOSITION CONTAINING 5-AMINOLEVULINIC ACID HYDROCHLORIDE” (priority 2020, published 2023)
